Results from patent US20040106148A1, “Polypeptides” (priority 2000, published 2004).

Molecular target: mouse centaurin-β2 PH domain (residues 266 to 390), GST fusion (Mus musculus, UniProt Q6ZQK5)
Assay: Protein-lipid overlay
Assay type: binding
Details: FIG. 2
Description: FIG. 2. Phosphoinositide binding properties of the novel PH domains. The ability of the indicated GST fusion proteins to bind a variety of phosphoinositides was analysed using a protein-lipid overlay. Serial dilutions of the indicated phosphoinositides (100 pmol, 50 pmol, 25 pmol, 12.5 pmol, 6.3 pmol, 3.1 pmol and 1.6 pmol) were spotted onto a nitrocellulose membranes which were then incubated with the purified GST fusion proteins. The membranes were washed and the GST-fusion proteins bound to the membrane by virtue of their interaction with lipid were detected using a GST antibody. A representative of at least 3 separate experiments carried out is shown.
Cloning of PH domains and preparation of expression constructs. All the human and mouse EST's were obtained from the I.M.A.G.E. Consortium and sequenced. The plant EST (accession number T04439) encoding a full length clone of AtPH1 was obtained from the Arabidopsis Biological Research. Centre (Ohio University). The sequence of each EST was verified and the full length PH domain of each EST was amplified by PCR using the Hi-fidelity PCR system with primers designed to incorporate a Kozak site, an initiating ATG codon followed by a myc epitope tag and a stop codon after the PH domain. […]

Chain of mouse centaurin-β2 PH domain (residues 266 to 390), GST fusion (Q6ZQK5 266-390): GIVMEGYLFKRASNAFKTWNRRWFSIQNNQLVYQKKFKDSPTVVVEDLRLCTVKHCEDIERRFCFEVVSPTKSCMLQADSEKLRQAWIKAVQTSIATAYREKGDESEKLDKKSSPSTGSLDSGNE

phosphoinositide binding: moderate affinity
SMILES: CCCCCCCCCCCCCCCC(=O)OC[C@H](COP(=O)(O)O[C@@H]1[C@H](O)[C@H](OP(=O)(O)O)[C@@H](O)[C@H](OP(=O)(O)O)[C@H]1O)OC(=O)CCCCCCCCCCCCCCC [PtdIns(3,5)P2]
